Laboratory results from ChEMBL document CHEMBL1134947, “A mechanism-based probe for gp120-Hydrolyzing antibodies” (Bioorg Med Chem Lett, 2002).
Square brackets hold non-standard residues; d marks the D form. Peptide text beside a SMILES is read from it. * marks the point of attachment. X2 = N=C(N)c1ccc(C(N*)P(=O)(Oc2ccccc2)Oc2ccccc2)cc1; X1 = O=C(CCCCC1SCC2NC(=O)NC21)NCCNC(=O)CCS*; Mpa = O=C(O)CCS

Biological target: T1, Serine protease 1 (Bos taurus, UniProt P00760)
T1 sequence (P00760 whole entry): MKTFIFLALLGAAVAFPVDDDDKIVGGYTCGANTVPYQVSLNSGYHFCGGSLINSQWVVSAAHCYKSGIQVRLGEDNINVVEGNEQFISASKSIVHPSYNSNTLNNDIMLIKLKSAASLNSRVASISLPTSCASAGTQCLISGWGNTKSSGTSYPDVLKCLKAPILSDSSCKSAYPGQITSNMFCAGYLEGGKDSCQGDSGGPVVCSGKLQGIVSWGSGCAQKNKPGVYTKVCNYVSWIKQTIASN
Assay: Concentration required for the inhibition of catalytic activity of bovine trypsin

Row | SMILES | IC50 [µM]
1 | N=C(N)c1ccc(C(NC(=O)CCSSCCC(=O)NCCNC(=O)CCCCC2SCC3NC(=O)NC32)P(=O)(Oc2ccccc2)Oc2ccccc2)cc1 (configuration not stated) | 31
2 | CC[C@H](C)[C@H](NC(=O)[C@H](CCC(N)=O)NC(=O)[C@H](CCCCN)NC(=O)CCSSCCC(=O)NCCNC(=O)CCCCC1SCC2NC(=O)NC21)C(=O)N[C@H](C(=O)N[C@@H](CC(N)=O)C(=O)N[C@@H](CCSC)C(=O)N[C@@H](Cc1c[nH]c2ccccc12)C(=O)N[C@@H](CCC(N)=O)C(=O)N[C@@H](CCC(=O)O)C(=O)N[C@H](C(=O)NCC(=O)NC(c1ccc(C(=N)N)cc1)P(=O)(Oc1ccccc1)Oc1ccccc1)C(C)C)[C@@H](C)CC (some centres not stated) ([Mpa](X1)KQIINMWQEVG-X2) | 30
